Our source for the Ki values is patent EP2970215B1, “PYRROLIDINE DERIVATIVES, PHARMACEUTICAL COMPOSITIONS CONTAINING THEM, AND THEIR USE IN THERAPY” (AbbVie Deutschland GmbH & Co. KG, priority 2013, dated 2014).

Each structure is given as a SMILES string. Bounds are passed on as bounds.

This experiment addresses T1, human GlyT1c transporter (Homo sapiens, UniProt P48067).
T1 construct: expressed in transfected cells; host or cells: CHO cells (recombinant; line hGlyT1c_5_CHO is named for the uptake assay)
T1 sequence (P48067 1-706): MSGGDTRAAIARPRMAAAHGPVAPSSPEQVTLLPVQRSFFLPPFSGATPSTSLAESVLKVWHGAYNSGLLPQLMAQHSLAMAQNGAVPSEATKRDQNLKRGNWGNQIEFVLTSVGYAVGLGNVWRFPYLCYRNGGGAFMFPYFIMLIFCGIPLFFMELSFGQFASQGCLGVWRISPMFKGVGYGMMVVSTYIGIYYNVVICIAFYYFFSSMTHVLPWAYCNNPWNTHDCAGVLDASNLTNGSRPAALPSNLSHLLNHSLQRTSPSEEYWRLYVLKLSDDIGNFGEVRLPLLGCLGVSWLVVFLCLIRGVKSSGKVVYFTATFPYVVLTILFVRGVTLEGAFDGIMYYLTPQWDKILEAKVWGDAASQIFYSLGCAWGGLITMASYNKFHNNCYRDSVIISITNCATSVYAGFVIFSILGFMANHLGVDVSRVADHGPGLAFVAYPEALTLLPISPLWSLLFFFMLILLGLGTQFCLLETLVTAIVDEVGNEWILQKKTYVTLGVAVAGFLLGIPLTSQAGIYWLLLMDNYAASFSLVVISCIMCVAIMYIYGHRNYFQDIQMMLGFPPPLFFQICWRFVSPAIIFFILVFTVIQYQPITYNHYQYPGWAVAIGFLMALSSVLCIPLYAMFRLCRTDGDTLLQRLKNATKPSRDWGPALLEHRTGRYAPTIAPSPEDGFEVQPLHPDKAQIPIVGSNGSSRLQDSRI
Description: Radioligand binding assay using recombinant CHO cell membranes expressing human GlyT1. The note with it: radioligand binding to human GlyT1c transporter-expressing membranes. The source says:
2. Radioligand binding assays using recombinant CHO cell membranes expressing human GlyT1: […]
On to `O=S(=O)(c1cccnc1)N1CC(Nc2ccc(F)c(F)c2)C(c2ccccc2)C1` (centres unmarked) [Example 477, N-(3,4-difluorophenyl)-4-phenyl-1-(pyridin-3-ylsulfonyl)pyrrolidin-3-amine], for which the Ki is not above 10 µM.

In the case of `CCCCCNC(=O)[C@@H]1CN(S(=O)(=O)c2cn(C)cn2)C[C@H]1c1ccc(F)cc1` (relative stereo) [Example 626, Trans-4-(4-fluorophenyl)-1-[(1-methyl-1H-imidazol-4-yl)sulfonyl]-N-pentylpyrrolidine-3-carboxamide], the Ki is not above 1 µM.

With `Cn1cnc(S(=O)(=O)N2C[C@@H](Nc3ccc(F)c(Cl)c3)[C@H](c3ccccc3Cl)C2)c1` (relative stereo) [Example 257, trans-N-(3-chloro-4-fluorophenyl)-4-(2-chlorophenyl)-1-[(1-methyl-1H-imidazol-4-yl)sulfonyl]pyrrolidin-3-amine], the inhibition constant (Ki) is not above 0.1 µM.

`Cn1cnc(S(=O)(=O)N2C[C@H](NCc3cccn4ccnc34)[C@@H](c3ccccc3)C2)c1` [Example 535, (3R,4S)-N-(imidazo[1,2-a]pyridin-8-ylmethyl)-1-[(1-methyl-1H-imidazol-4-yl)sulfonyl]-4-phenylpyrrolidin-3-amine]: the Ki is not above 10 µM.

Consider `Cn1cnc(S(=O)(=O)N2C[C@H](Nc3ccc(F)c(-c4ccncc4)c3)[C@@H](c3ccc(F)cc3)C2)c1` [Example 746, (3R,4S)-4-(4-fluorophenyl)-N-[4-fluoro-3-(pyridin-4-yl)phenyl]-1-[(1-methyl-1H-imidazol-4-yl)sulfonyl]pyrrolidin-3-amine], for which the Ki is not above 0.01 µM.

Turning to `Cn1cnc(S(=O)(=O)N2C[C@H](NCC3CCC(F)(F)CC3)[C@@H](c3ccccc3)C2)c1` [Example 554, (3R,4S)-N-[(4,4-difluorocyclohexyl)methyl]-1-[(1-methyl-1H-imidazol-4-yl)sulfonyl]-4-phenylpyrrolidin-3-amine], the Ki is not above 1 µM.

Regarding `Cn1cnc(S(=O)(=O)N2C[C@@H](Nc3cccc(C(F)(F)F)c3)[C@H](C3CCCCO3)C2)c1` (relative stereo) [Example 681, Trans-1-[(1-methyl-1H-imidazol-4-yl)sulfonyl]-4-(tetrahydro-2H-pyran-2-yl)-N-[3-(trifluoromethyl)phenyl]pyrrolidin-3-amine], the Ki was not above 0.01 µM.

Regarding `Cn1cnc(S(=O)(=O)N2C[C@@H](Nc3cc(F)c(F)c(Cl)c3)[C@H](c3ccc(F)cc3)C2)c1` (relative stereo) [Example 175, trans-N-(3-chloro-4,5-difluorophenyl)-4-(4-fluorophenyl)-1-[(1-methyl-1H-imidazol-4-yl)sulfonyl]pyrrolidin-3-amine], the Ki is not above 1 µM.

Consider `Cn1cnc(S(=O)(=O)N2C[C@@H](CNc3cccc(CN)c3)[C@H](c3ccc(F)cc3)C2)c1` (relative stereo) [Example 365, 3-(Aminomethyl)-N-({Trans-4-(4-fluorophenyl)-1-[(1-methyl-1H-imidazol-4-yl)sulfonyl]pyrrolidin-3-yl}methyl)aniline], for which the Ki was not above 10 µM.

For the compound `Cn1cnc(S(=O)(=O)N2C[C@@H](NCc3ccc(C(F)(F)F)cc3Cl)[C@H](c3ccccc3)C2)c1` (relative stereo) [Example 281, trans-N-[2-chloro-4-(trifluoromethyl)benzyl]-1-[(1-methyl-1H-imidazol-4-yl)sulfonyl]-4-phenylpyrrolidin-3-amine], the Ki was not above 0.01 µM.

For the compound `Cn1cc(S(=O)(=O)N2C[C@@H](NC(=O)c3cccc(C(F)(F)F)c3Cl)[C@H](c3ccccc3)C2)c(C(F)(F)F)n1` (relative stereo) [Example 38, 2-chloro-N-[trans-1-{[1-methyl-3-(trifluoromethyl)-1H-pyrazol-4-yl]sulfonyl}-4-phenylpyrrolidin-3-yl]-3-(trifluoromethyl)benzamide], the Ki is not above 10 µM.

In the case of `CCOCCCNC(=O)[C@@H]1CN(S(=O)(=O)c2cn(C)cn2)C[C@H]1c1ccc(F)cc1` [Example 578, (3S,4R)-N-(3-ethoxypropyl)-4-(4-fluorophenyl)-1-[(1-methyl-1H-imidazol-4-yl)sulfonyl]pyrrolidine-3-carboxamide], the Ki was not above 10 µM.

As to `O=S(=O)(c1ccc2c(c1)OCCO2)N1CC(Nc2ccc(F)c(F)c2)C(c2ccccc2)C1` (centres unmarked) [Example 496, N-(3,4-difluorophenyl)-1-(2,3-dihydro-1,4-benzodioxin-6-ylsulfonyl)-4-phenylpyrrolidin-3-amine], the Ki is not below 10 µM.

In the case of `Cn1cnc(S(=O)(=O)N2C[C@H](Nc3cc(C4CC4)ncn3)[C@@H](c3ccccc3)C2)c1` [Example 612, 6-cyclopropyl-N-{(3R,4S)-1-[(1-methyl-1H-imidazol-4-yl)sulfonyl]-4-phenylpyrrolidin-3-yl}pyrimidin-4-amine], the Ki was not above 1 µM.

As for `Cn1cnc(S(=O)(=O)N2C[C@@H]([C@@H]3CCCOC3)[C@H](Nc3cccc(OC(F)(F)F)c3)C2)c1` (mixture of isomers) [Example 784, trans-1-[(1-methyl-1H-imidazol-4-yl)sulfonyl]-4-[(3S)-tetrahydro-2H-pyran-3-yl]-N-[3-(trifluoromethoxy)phenyl]pyrrolidin-3-amine], the Ki was not above 0.1 µM.

Regarding `Cc1cccc(OC[C@@H]2CN(S(=O)(=O)c3cn(C)cn3)C[C@H]2c2ccc(F)cc2)c1` (relative stereo) [Example 296, 4-({trans-3-(4-fluorophenyl)-4-[(3-methylphenoxy)methyl]pyrrolidin-1-yl}sulfonyl)-1-methyl-1H-imidazole], the Ki is not above 0.1 µM.

Turning to `Cn1cnc(S(=O)(=O)N2C[C@H](Nc3cc(-c4cccnc4)ccn3)[C@@H](c3ccc(F)cc3)C2)c1` [Example 750, N-{(3R,4S)-4-(4-fluorophenyl)-1-[(1-methyl-1H-imidazol-4-yl)sulfonyl]pyrrolidin-3-yl}-3,4'-bipyridin-2'-amine], the Ki is not above 0.1 µM.

As to `COc1cccc(C(=O)N[C@@H]2CN(S(=O)(=O)c3cn(C)cn3)C[C@H]2c2ccccc2)c1` (relative stereo) [Example 21, 3-methoxy-N-{trans-1-[(1-methyl-1H-imidazol-4-yl)sulfonyl]-4-phenylpyrrolidin-3-yl}benzamide], the inhibition constant (Ki) was not above 10 µM.

As to `Cn1cnc(S(=O)(=O)N2C[C@@H](Nc3ccc(C(F)(F)F)cc3)[C@H](c3ccccc3)C2)c1` (relative stereo) [Example 68, trans-1-[(1-methyl-1H-imidazol-4-yl)sulfonyl]-4-phenyl-N-[4-(trifluoromethyl)phenyl]pyrrolidin-3-amine], the Ki was not above 1 µM.

As for `Cn1cnc(S(=O)(=O)N2C[C@@H](COc3ccc(Cl)cc3Cl)[C@H](c3ccc(F)cc3)C2)c1` (relative stereo) [Example 246, 4-{[trans-3-[(2,4-dichlorophenoxy)methyl]-4-(4-fluorophenyl)pyrrolidin-1-yl]sulfonyl}-1-methyl-1H-imidazole], the Ki was not above 0.1 µM.

Take `CC(C)Oc1cccc(NC2CN(S(=O)(=O)c3cn(C)cn3)CC2c2ccc(F)cc2)c1` (centres unmarked) [Example 349, 4-(4-fluorophenyl)-1-[(1-methyl-1H-imidazol-4-yl)sulfonyl]-N-[3-(propan-2-yloxy)phenyl]pyrrolidin-3-amine]: the Ki was not above 0.1 µM.

As to `Cn1cnc(S(=O)(=O)N2C[C@H](Nc3ccc(F)c(F)c3)[C@@H](c3ccc(F)cc3)C2)c1` [Example 418, (3R,4S)-N-(3,4-difluorophenyl)-4-(4-fluorophenyl)-1-[(1-methyl-1H-imidazol-4-yl)sulfonyl]pyrrolidin-3-amine], the Ki was not above 0.1 µM.

Consider `Cn1cnc(S(=O)(=O)N2C[C@H](NC(=O)COc3ccc(F)cc3)[C@@H](c3ccc(F)cc3)C2)c1` [Example 644, 2-(4-fluorophenoxy)-N-{(3R,4S)-4-(4-fluorophenyl)-1-[(1-methyl-1H-imidazol-4-yl)sulfonyl]pyrrolidin-3-yl}acetamide], for which the Ki is not above 10 µM.

For `Cn1cnc(S(=O)(=O)N2C[C@H](NCc3ccc(Cl)s3)[C@@H](c3ccc(F)cc3)C2)c1` [Example 393, (3R,4S)-N-[(5-chlorothiophen-2-yl)methyl]-4-(4-fluorophenyl)-1-[(1-methyl-1H-imidazol-4-yl)sulfonyl]pyrrolidin-3-amine], the Ki is not above 0.01 µM.

For the compound `Cn1cnc(S(=O)(=O)N2C[C@@H](CNc3cccc(Cl)c3)[C@H](c3ccc(F)cc3)C2)c1` (relative stereo) [Example 333, 3-Chloro-N-({trans-4-(4-fluorophenyl)-1-[(1-methyl-1H-imidazol-4-yl)sulfonyl]pyrrolidin-3-yl}methyl)aniline], the Ki was not above 1 µM.

For the compound `CCCCC(F)(F)C(=O)N[C@H]1CN(S(=O)(=O)c2cn(C)cn2)C[C@@H]1c1ccc(F)cc1` [Example 708, 2,2-difluoro-N-{(3R,4S)-4-(4-fluorophenyl)-1-[(1-methyl-1H-imidazol-4-yl)sulfonyl]pyrrolidin-3-yl}hexanamide], the Ki was not above 10 µM.

In general, Ki refers to the dissociation constant of the complex between target and ligand, obtained from inhibition or displacement.
